The values below come from patent publication US12637461B2, “Compounds for the activation of AMPK” (PFIZER INC., priority 2022, dated 2026).

The assay concerns the target T1, human AMPK α2β2γ3 (Homo sapiens, UniProt O43741+P54646+Q9UGI9).
T1 construct: expressed in transfected cells; host or cells: HEK293AD cells, MaxCyte bulk electroporation
The assay is described as follows: Primary cellular assay: γ3 associated phospho-Thr172 AMPK detection (custom pAMPK Surefire AlphaLISA) in α2β2γ3 bulk transiently transfected HEK293 cells. Format: cell-based. Particulars: activation of human AMPK α2β2γ3 (γ3 pThr172 AMPK signal) in transiently transfected HEK293 cells, 20 minutes compound incubation; for Emax: 20 min, geometric mean of the asymptotic max, read-out: Assay GMean Asy. Max (%); for EC50: geometric mean EC50, read-out: Assay GMean EC50. A digest of the protocol: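 Transiently co-transfected (α2/β2/γ3 plasmids, electroporation) HEK293AD cells, plated 2 days in low-glucose DMEM+10% FBS, treated 20 min with compounds (11-point half-log dilutions). Lysates read by modified AlphaLISA capturing γ3 with pThr172 antibody detection. % effect relative to 30 μM HPE and DMSO; EC50 and Emax from curve fit.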
On the technique in general: In Alpha technology, singlet oxygen from a donor bead excites a nearby acceptor bead.

T1 sequence (P54646 whole entry): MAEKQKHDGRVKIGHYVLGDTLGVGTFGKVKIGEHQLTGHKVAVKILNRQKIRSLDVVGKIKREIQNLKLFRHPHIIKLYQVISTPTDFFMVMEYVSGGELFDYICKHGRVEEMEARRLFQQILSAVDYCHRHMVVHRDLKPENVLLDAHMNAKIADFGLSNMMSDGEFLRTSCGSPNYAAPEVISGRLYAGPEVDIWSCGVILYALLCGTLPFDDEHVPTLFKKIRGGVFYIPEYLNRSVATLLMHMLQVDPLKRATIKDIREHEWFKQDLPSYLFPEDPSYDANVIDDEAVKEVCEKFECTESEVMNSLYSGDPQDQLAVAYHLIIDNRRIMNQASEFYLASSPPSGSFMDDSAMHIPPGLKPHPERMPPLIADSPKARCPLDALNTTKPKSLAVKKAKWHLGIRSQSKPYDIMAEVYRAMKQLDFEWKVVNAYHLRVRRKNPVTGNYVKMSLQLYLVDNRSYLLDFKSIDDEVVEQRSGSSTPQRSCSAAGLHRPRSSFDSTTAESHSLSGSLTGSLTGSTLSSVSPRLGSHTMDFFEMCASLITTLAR
T1 sequence (O43741 whole entry): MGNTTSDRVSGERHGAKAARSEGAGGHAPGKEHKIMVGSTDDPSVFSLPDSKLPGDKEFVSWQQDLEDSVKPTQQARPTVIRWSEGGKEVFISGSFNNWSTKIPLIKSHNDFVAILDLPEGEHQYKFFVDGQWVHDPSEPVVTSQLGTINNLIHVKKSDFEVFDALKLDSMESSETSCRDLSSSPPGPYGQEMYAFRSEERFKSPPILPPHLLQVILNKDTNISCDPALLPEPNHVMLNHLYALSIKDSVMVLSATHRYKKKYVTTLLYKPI
T1 sequence (Q9UGI9 whole entry): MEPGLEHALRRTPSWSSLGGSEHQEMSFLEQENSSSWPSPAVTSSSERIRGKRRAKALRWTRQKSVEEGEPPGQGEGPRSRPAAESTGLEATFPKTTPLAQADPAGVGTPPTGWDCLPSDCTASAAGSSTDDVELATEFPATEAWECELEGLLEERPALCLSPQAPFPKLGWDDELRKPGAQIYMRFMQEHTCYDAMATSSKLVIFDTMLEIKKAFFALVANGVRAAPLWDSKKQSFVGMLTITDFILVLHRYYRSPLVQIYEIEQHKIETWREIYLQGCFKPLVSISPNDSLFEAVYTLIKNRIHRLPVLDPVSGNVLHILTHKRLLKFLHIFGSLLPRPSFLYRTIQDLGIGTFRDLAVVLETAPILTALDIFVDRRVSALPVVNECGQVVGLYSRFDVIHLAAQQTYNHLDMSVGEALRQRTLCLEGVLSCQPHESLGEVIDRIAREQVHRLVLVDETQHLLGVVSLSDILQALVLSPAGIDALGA

As for `C[C@]1(c2cccc(Cl)c2F)CN(c2cc(N)ccn2)C(=O)c2cnc(NC3CN(C(=O)[C@@H]4C[C@@H]4F)C3)c(F)c21` [compound 93, (4R)-2-(4-aminopyridin-2-yl)-4-(3-chloro-2-fluorophenyl)-5-fluoro-6-({1-[(1S,2S)-2-fluorocyclopropane-1-carbonyl]azetidin-3-yl}amino)-4-methyl-3,4-dihydro-2,7-naphthyridin-1(2H)-one], the Emax was 57.5% and the 50% effective concentration (EC50) turned out to be 65.3 nM.
In the same order, the values of `CC1(c2cccc(Cl)c2F)CN(c2ncccc2F)C(=O)c2cnc(NC3CN(C(=O)[C@@H]4CC45CCOCC5)C3)nc21` (single isomer, unassigned) [compound 82] are 218% and 107 nM.
In the same order, the values of `Cn1cc(C(=O)N2CC(Nc3ncc4c(c3F)[C@@](C)(c3cccc(Cl)c3F)CN(c3ccc(CO)cn3)C4=O)C2)nn1` [compound 60, (4R)-4-(3-chloro-2-fluorophenyl)-5-fluoro-2-[5-(hydroxymethyl)pyridin-2-yl]-4-methyl-6-{[1-(1-methyl-1H-1,2,3-triazole-4-carbonyl)azetidin-3-yl]amino}-3,4-dihydro-2,7-naphthyridin-1(2H)-one] are 48.6% and 53.5 nM.
For `Cn1cc(F)c(N2CC(C)(c3ccc(F)c(Cl)c3F)c3c(cnc(NC4CN(C(=O)C(C)(C)O)C4)c3F)C2=O)n1` (stereo not drawn) [compound 101, 4-(3-chloro-2,4-difluorophenyl)-5-fluoro-2-(4-fluoro-1-methyl-1H-pyrazol-3-yl)-6-{[1-(2-hydroxy-2-methylpropanoyl)azetidin-3-yl]amino}-4-methyl-3,4-dihydro-2,7-naphthyridin-1(2H)-one, from P3 (ENANT-2)], in that order: 108% and 135 nM.
For the molecule `Cn1cc(F)c(N2CC(C)(c3cccc(Cl)c3F)c3nc(NC4CN(C(=O)[C@@H]5C[C@@H]5F)C4)ncc3C2=O)n1` (single isomer, unassigned) [Example 30], the Emax came out at 178% and the 50% effective concentration (EC50) was 740 nM.
Take `CN(C)CC(=O)N1CC(Nc2ncc3c(c2F)[C@@](C)(c2cccc(Cl)c2F)CN(c2nn(C)cc2F)C3=O)C1` [compound 41, (4R)-4-(3-chloro-2-fluorophenyl)-6-({1-[(dimethylamino)acetyl]azetidin-3-yl}amino)-5-fluoro-2-(4-fluoro-1-methyl-1H-pyrazol-3-yl)-4-methyl-3,4-dihydro-2,7-naphthyridin-1(2H)-one]: the Emax was 80.2% and the concentration for a half-maximal effect (EC50) amounted to 120 nM.

By EC50 is commonly meant the concentration at which the effect is half-maximal.
